Assay results published in US20240309360A1, “TRANS-ACTIVATORS AND METHODS AND USE THEREOF” (THE GOVERNING COUNCIL OF THE UNIVERSITY OF TORONTO, priority 2021, published 2024).

Tests used:
Assay type in all cases: cell-based, human
[1] = tested on: transcriptional activity of 83 transcriptional regulators on the EGFP reporter; assay: Tethered reporter assays in the presence of inhibitors; settings: for effect of inhibitor on activity of the activators: 100 nM flavopiridol, 300 nM JQ1, 1 μM A-485, 2.5 μM CX-4945, 3 μM AZ191, 100 μM ABA 48 hours; for effect of inhibitor on activity of NuA4 complex interactors: 1 μM A-485 or 300 nM JQ1, e.g; call rule not given here. JAZF1 and KLF6
Description: To functionally investigate the connection between transcriptional activators and co-factors, a panel of 83 robust activators was arrayed. Their activation potential was tested using the reporter assay, but now in the presence of small-molecule inhibitors targeting multiple transcriptional co-regulators. Three kinase inhibitors targeting transcriptional kinases (flavopiridol for CDK9, CX-4945 for casein kinase 2, and AZ191 for DYRK1A and DYRK1B), and two compounds inhibiting transcriptional co-factors (A-485 for CBP/p300, and JQ1 for BET family bromodomain proteins) were employed.
(§1) Arrayed recruitment assays. Reporter cells stably co-expressing ABI-dCas9 and TetO gRNA were seeded either on 48-well or 96-well plates (Sarstedt) to reach 50-70% confluency on the day of transfection. 150 ng of each construct to be tested was transfected with polyethylenimine (PEI) at a ratio of 0.6 μl reagent. The day after transfection, recruitment was induced by treatment with ABA (100 μM). […] Inhibitors were dissolved in DMSO to a stock concentration of 10 mM. The final concentrations used were 100 nM for flavopiridol, 300 nM for JQ1, 1 μM for A-485, 2.5 μM for CX-4945 and 3 μM for AZ191. All inhibitors were a kind gift from the Structural Genomics Consortium (SGC). 48 hours after induction, cells were dissociated and resuspended in flow buffer using a liquid handing robot (TECAN) and analyzed by LSR Fortessa (BD). Cells were gated on high EBFP2 and RFP as a measure of gRNA and transfection control, respectively. Flow cytometry data was analyzed using FlowJo (v10).

[2] = tested on: EGFP reporter (7×TetO array, basal CMV promoter) in HEK293T reporter cell line; assay: Arrayed recruitment assay, PYL1 fusions individually recruited to reporter via ABI1-dCas9 with ABA; design: key to independently validated as transactivating fragment: Fragments marked with * were independently validated; settings: for independently validated as transactivating fragment: fragment fused to PYL1, arrayed format
Excerpt: Treatment of cells with abscisic acid (ABA) induces an interaction between ABI1 and PYL1, thereby recruiting the potential transcriptional activator to a specific genomic locus defined by the guide RNA (gRNA). As a reporter, a HEK293T cell line that contains a stably integrated construct with a 7×TetO array and a basal CMV promoter driving the expression of EGFP was used (Gao et al., 2016). A monoclonal cell line that expresses ABI1-dCas9 and a single gRNA targeting TetO was generated by lentiviral infection.
as §1

[3] = tested on: EGFP reporter (7×TetO array, basal CMV promoter) in HEK293T reporter cell line; assay: TAD-seq pooled activation screen of 60-aa fragments fused to PYL1; settings: for Hit high GFP: high GFP population (top 1%); for logFC high GFP / logFC medium GFP: log 2 fold change of counts, 100 μM ABA 48 hours; for logFC high GFP: sorted high GFP cells (top 1%) vs unsorted cells; for logFC medium GFP: sorted medium GFP cells (top 2-5%) vs unsorted cells; for Hit medium GFP: medium GFP population (top 2-5%)
Outline: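 60-aa tiles at 20-aa steps from 75 activator proteins, C-terminally fused to PYL1, lentivirally transduced at low MOI into reporter cells co-expressing ABI-dCas9 and promoter gRNA. Recruitment induced with 100 μM abscisic acid for 48 h (DMSO control). Top 1% and next 4% GFP cells sorted; fragments quantified by sequencing, two replicates.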

[4] = tested on: EGFP reporter (TetO7) in HEK293T cells; assay: Multi-TAD effectors fused to PYL1 recruited to EGFP reporter; settings: PYL1 fusion, 1 μM abscisic acid, 24 or 48 hours
Description: Multiple TADs were fused together with PYL1 and tested for transcriptional activity using the PYL1-ABI EGFP reporter system described above. The following TAD fragments were used: CITED1-8 (SEQ ID NO: 47), CITED2-12 (SEQ ID NO: 49), C3orf62-12 (SEQ ID NO: 45), BRD8-25 (SEQ ID NO: 40), ZXDC-12 (SEQ ID NO: 97), KLF7-1 (SEQ ID NO: 72), ATXN7L3-1 (SEQ ID NO: 35), FAM90A1-20 (SEQ ID NO: 60), SPDYE4-3 (SEQ ID NO: 90), YAF2-7 (SEQ ID NO: 96).
Methods: Cells were seeded on 48-well plates. Next day, after cells were between 70-90% confluent, 250 ng of each construct was transfected in each well using (Thermo Fisher Scientific, 11668019) reagent. Each construct was either directly fused TagRFP either directly fused to each component or being co-expressed from the same plasmid was used as a measure of transfection. In each experiment, the same gate for RFP+ cells were used to control for the effect of each construct's expression levels on activity. EGFP reporter cells were expanded from a clonal line to control for level of ABI-dCas9 and gRNA targeting the TetO7 sites upstream of the promoter. For the CD133 induction experiment, a 293T cell line stably expressing ABI-dCas9 and a pool of 5 gRNAs targeting the promoter were used for all activators. CD133 antibody conjugated to APC (Miltenyi Biotec, 130-113-668) was used. […]

Compound	effect of inhibitor on activity of the activators [1]	independently validated as transactivating fragment [2]	Hit high GFP [3]	logFC high GFP [3]	logFC medium GFP [3]	Hit medium GFP [3]	also measured
COc1cc(N2CCN(C)CC2)ccc1Nc1nccc(-c2cn(C)c3cnccc23)n1 [AZ191]	slightly attenuating the activity of most activators	–	–	–	–	–	effect of inhibitor on activity of DCAF7 and NCKIPSD ([1]; 3 μM AZ191): not affected
CNC(=O)Nc1ccc2c(c1)CC[C@@]21OC(=O)N(CC(=O)N(Cc2ccc(F)cc2)[C@@H](C)C(F)(F)F)C1=O [Fragment A-485, A-485]	strongly affected the activity of some but not all transactivators	–	–	–	–	–	effect of inhibitor on activity of CBP/p300 non-interactors ([1]; 1 μM A-485): only one of the seven non-interactors was affected; effect of inhibitor on activity of KLF6 ([1]; 1 μM A-485): no effect; effect of inhibitor on activity of KLF15 ([1]; 1 μM A-485): inhibited the activity of KLF15; effect of inhibitor on activity of CBP/p300 interactors ([1]; 1 μM A-485, interactors by AP-MS and BioID): four of the six CBP/p300 interactors was significantly decreased; effect of inhibitor on activity of NuA4 complex interactors [1]: not significantly affected; sensitivity of C3orf62-Cterm and SRF-C3orf62 reporter activation to inhibitor ([1]; CBP/p300 inhibition): highly sensitive
Cc1sc2c(c1C)C(c1ccc(Cl)cc1)=N[C@@H](CC(=O)OC(C)(C)C)c1nnc(C)n1-2 [JQ1]	increase in reporter gene activity	–	–	–	–	–	effect of inhibitor on activity of NuA4 complex interactors [1]: not affected
CN1CC[C@H](c2c(O)cc(O)c3c(=O)cc(-c4ccccc4Cl)oc23)[C@H](O)C1 [flavopiridol]	nearly complete loss of activity of all activators	–	–	–	–	–	–
SPDYE4-3: 60-aa TAD-seq fragment of SPDYE4; SPDYE4 activation domain (DPSPQPQSLGLKRKSEWSDESEEELEEELELERAPEPEDTWVVETLCGLKMKLKRKRASS; listed as Homo sapiens)	–	3*	hit	4.82	2.409	hit	transcriptional activation of EGFP reporter by TAD fusions [4]: weak activity
VP64: synthetic transactivator, four tandem copies of the viral VP16 transactivation motif (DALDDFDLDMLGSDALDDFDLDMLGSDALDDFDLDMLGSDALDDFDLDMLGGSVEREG; listed as Homo sapiens) [reference compound]	–	–	hit	5.476	2.374	–	activation of the EGFP reporter when individually tested ([2]; PYL1 fusion, ABA 48 hours, flow cytometry): robust induction of GFP; enrichment compared to the unsorted fragment library ([3]; high GFP and medium GFP populations): enriched in the high GFP population but depleted in the medium GFP population
YAF2-7: 60-aa TAD-seq fragment of YAF2 (SHKKTRPRLKNVDRSSAQHLEVTVGDLTVIITDFKEKTKSPPASSAASADQHSQSGSSSD; listed as Homo sapiens)	–	YAF2-7*	hit	4.987	1.828	hit	–
ZXDC-12: 60-aa TAD-seq fragment of ZXDC (SPAEQHGAQDTELSAGTGNFYLESGGSARTDYRAIQLAKEKKQRGAGSNAGASQSTQRKI; listed as Homo sapiens)	–	ZXDC-12*	hit	3.966	2.496	hit	–
